Values quoted from earlier work, collected in US20070178561A1, “Anti-hiv-1 compounds based upon a conserved amino acid sequence shared by gp160 and the human cd4 protein” (priority 2003, published 2007).

Assays:
[1] = tested on: HIV-1; settings: in vitro viral cell growth assays using p24
[2] = target: gp160 (Human immunodeficiency virus type 1 group M subtype B, UniProt P04578); settings: Jiang et al., Nature 365:113, 1993

Sequence: TNWLWYIKLFIMIVGGLVGLRIVFAKKKC [683-707KKKC]
- inhibition of viral growth (p24) [1]: does not inhibit viral growth
- binding to gp160 [2]: bound gp160
